Data set [1] concerns the target T1, rat CB1 receptor (Rattus norvegicus, UniProt P20272).
T1 construct: contains an open reading frame of 1419 base pairs which corresponds to a protein of 473 amino acids; expressed in transfected cells; host or cells: CHOluc9 reporter cells stably transfected with plasmid CMV-RH (rat CB1 cDNA in pRc/CMV)
The experiment in a line: CB1 luciferase reporter gene test (CHOluc9 cells stably transfected with rat CB1). The class given is cell-based. The conditions noted are these: forskolin stimulated. As to the method: CB1—Luciferase Reporter Gene Test
1. Cloning of the Rat Cannabinoid Receptor CB1
Total RNA from rat brain (the tissue was taken from freshly killed animals and shock-frozen in liquid nitrogen) was isolated by acidic guanidinium thiocyanate/phenol/chloroform extraction (J. Biol. Chem. 1979, 18, 5294) and converted into cDNA by means of reverse transcriptase and random primers (in each case from Invitrogen). The polymerase chain reaction (PCR, conditions: 4 min 94° C., 1H; 1 min 94° C.; 2 min 53° C.; 1 min 72° C., 50 cycles; 1 min 94° C., 2 min 53° C., 4 min 72° C., 1H) was carried out in a Perkin Elmer thermocycler using the enzyme Taq polymerase (Perkin Elmer); the oligonucleotide primers employed (bases 99 to 122: 5′63′, “down”; 1556-1575: 3′75′, “up”) were derived from the published sequence of the rat cannabinoid receptor (Nature 1990, 346, 561) and were synthesized on a DNA synthesizer, model 1380 from Applied Biosystems. One part of the PCR reaction was separated in a 1% strength agarose gel in 1H TBE buffer and then stained with ethidium bromide, only one band having the expected length being visible (approximately 1.5 kb). This PCR product was subcloned into the TA cloning vector (Invitrogen) and the nucleotide sequence of the insert was determined by the dideoxynucleotide chain termination reaction using T7DNA polymerase (Sequenase, USA/Amersham). The insert has a length of 1477 base pairs and contains an open reading frame of 1419 base pairs which corresponds to a protein of 473 amino acids. The number of base pairs, the position of the open reading frame and the number of amino acids agree with the published sequence. Computer analyses were carried out with the aid of the GCG software suite (Genetic Computer Group). The cDNA insert was subcloned into the expression vector pRc/CMV (Invitrogen) after partial digestion with HindIII and NotI (Biolabs). This construct (plasmid CMV-RH) was employed for transfection experiments.
2. Stable Transfection of the CHOluc9 Reporter Cells
CHOluc9 cells were cultured in 50% Dulbecco's modified Eagle medium/50% F-12 (DMEM/F12) which contained 10% foetal calf serum (FCS). Transfections were prepared in 6-well plates. 7.5 μg of Qiagen-purified CMV-RH plasmid DNA were added per […] with the DOTAP transfection system, corresponding to the experimental protocol of the manufacturer (Boehringer Mannheim). Transfected cells were selected using 1 mg/ml G418 and individual clones were obtained by limiting dilution in 96-well plates. Cell lines which express the cannabinoid receptor were identified for the inhibition of reporter gene expression after incubation with the cannabinoid receptor agonist, WIN-55,212-2, in the presence of forskolin. Several stably transfected and subcloned cell lines were further characterized by means of RT-PCR, as described under 1.
3. Test Optimization and Pharmacological Characterization of the CHOCB1 Reporter Cell Line
With the aim of high sensitivity and reproducibility, low variance and high suitability for carrying out on the robotic system, the luciferase test was optimized by variation of several test parameters, such as, for example, cell density, duration of the growth phase and the test incubation, forskolin concentration, medium composition. The following test protocol was used for pharmacological characterization of the cells and for robot-assisted substance screening: the stock cultures were cultured in 50% Dulbecco's modified Eagle medium/50% F-12 (DMEM/F12) with 10% FCS at 37° C. under 10% CO2 and in each case split 1:10 after 2 to 3 days. Test cultures were inoculated into 96-well plates at 5000 cells per well and cultured at 37° C. for 70 hours. The cultures were then carefully washed with phosphate-buffered saline and reconstituted using serum-free ultra-CHO medium (Bio-Whittaker). The substances dissolved in DMSO were diluted 1H in medium and pipetted into the test cultures (maximum DMSO final concentration in the test batch: 0.5%). […]
(In general: A reporter such as luciferase makes a cellular process visible.)

Data set [2] is described as follows: Solubility determination by precipitation method in physiological saline. Particulars: saline or isotonic, kinetic from dmso stock, 25° C., shaken 1 hour, HPLC. It counts as physicochemical. On the procedure:
To determine the solubility, a precipitation method was used:
10 mg of the test substance are completely dissolved in 50 μl of DMSO (stock solution). From this solution, 20 μl are added to 2000 μl of physiological saline. This solution in turn is shaken at 25° C. in a Thermomixer Comfort (from Eppendorf) at 1400 rpm for 1 hour, for equilibration.
The precipitated fractions of the test substance are centrifuged off at 14,000 rpm for 5 min, using a Biofuge 15 from Heraeus. 1300 μl of the supernatant are again centrifuged using a Microfuge from Beckmann, at 45,000 rpm=125,000 g.
10 μl of this centrifugation supernatant are then diluted with 1000 μl of DMSO, and this solution is measured by HPLC. (Hewlett Packard 1090, method: gradient of 100% PBS buffer pH=4 over 15 min to 10% buffer/90% acetonitrile, column: RP18)
The measured peak area of the HPLC determination is converted into the substance concentration using a calibration curve. For the calibration curve, 20 μl of the stock solution are successively diluted with DMSO in such a manner that 5 concentrations of from 2.5 mg/l to 2000 mg/l are obtained. These solutions are likewise measured by HPLC (method see above) and the peak areas are plotted against the concentrations.

In data set [3] the test system is rats. Put plainly: Rat hypothermia - agonism testing. It counts as in vivo. Particulars: i.v. administration. On the procedure:
Five minutes after determination of the basal body temperature via an oesophageal temperature probe, the test substance is administered (i.v.). A control group receives only the solvent of the test substances, likewise i.v. The body temperature is measured 7.5, 15, 30 and 60 minutes after i.v. administration. The group size per dose is 5-7 animals (rats).

pIC50: −log10 of the molar value. Where a name gives a salt, the structure may show the parent alone.

T1 sequence (P20272 whole entry): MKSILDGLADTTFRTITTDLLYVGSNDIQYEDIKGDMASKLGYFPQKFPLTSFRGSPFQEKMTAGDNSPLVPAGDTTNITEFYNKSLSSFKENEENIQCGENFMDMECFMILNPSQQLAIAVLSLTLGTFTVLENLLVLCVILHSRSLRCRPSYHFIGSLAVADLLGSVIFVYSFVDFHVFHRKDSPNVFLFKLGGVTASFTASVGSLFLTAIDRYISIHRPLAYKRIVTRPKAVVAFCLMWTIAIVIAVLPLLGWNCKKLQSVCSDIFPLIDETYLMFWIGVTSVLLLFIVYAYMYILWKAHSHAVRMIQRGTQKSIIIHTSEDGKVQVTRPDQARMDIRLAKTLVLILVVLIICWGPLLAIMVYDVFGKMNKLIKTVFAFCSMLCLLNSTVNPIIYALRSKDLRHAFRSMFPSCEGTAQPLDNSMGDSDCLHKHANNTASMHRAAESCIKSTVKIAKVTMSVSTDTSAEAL

One may read the pIC50 as the negative decadic logarithm of the IC50, by convention in mol/L. Low values mean a large IC50, high ones a small IC50. With `CC(C)(C)OC(=O)NCC(=O)OC[C@@H]1Cc2cccc(Oc3cccc(OS(=O)(=O)CCCC(F)(F)F)c3)c2C1` [Example 1, (R)-3-[2-(N-tert-butyloxycarbonylglycinyl)-oxymethyl-indanyl-4-oxy]-phenyl 4,4,4-trifluoro-1-butanesulphonate], the pIC50 in data set [1] is 9.46. In turn, `CC(C)(C)OC(=O)NCCCCCCC(=O)OC[C@@H]1Cc2cccc(Oc3cccc(OS(=O)(=O)CCCC(F)(F)F)c3)c2C1` [Example 2, (R)-3-[2-(7-N-tert-Butyloxycarbonylaninoheptanoyloxymethyl)-indanyl-4-oxy]-phenyl 4,4,4-trifluoro-1-butanesulphonate] showed a pIC50 in data set [1] of 9.89. Against the preceding compound, the pIC50 is 0.43 log units higher. The solubility is how much of the substance goes into solution per volume. Lower therefore signals a poorly soluble substance. `NCC(=O)OC[C@@H]1Cc2cccc(Oc3cccc(OS(=O)(=O)CCCC(F)(F)F)c3)c2C1` [Example 5, (R)-3-(2-Glycinyl-oxymethyl)-indanyl-4-oxy)-phenyl 4,4,4-trifluoro-1-butanesulphonate hydrochloride] had a solubility at 1 h in data set [2] of 0.72 mg/mL. Besides, the pIC50 in data set [1] is 9.96. Also, the “ED−1° C. (effective dose for 1° C. body temperature reduction)” value in data set [3] came to 0.03 mg/kg. Regarding `NCCCCCCC(=O)OC[C@@H]1Cc2cccc(Oc3cccc(OS(=O)(=O)CCCC(F)(F)F)c3)c2C1` [Example 6, (R)-3-[2-(7-Aminoheptanoyloxymethyl)-indanyl-4-oxy)-phenyl 4,4,4-trifluoro-1-butanesulphonate hydrochloride], in data set [1], the pIC50 was 9.07. Same read-out and setting: under `NCCC(=O)OC[C@@H]1Cc2cccc(Oc3cccc(OS(=O)(=O)CCCC(F)(F)F)c3)c2C1` [Example 7, (R)-3-[2-(3-Aminopropanoyloxymethyl)-indanyl-4-oxy)-phenyl 4,4,4-trifluoro-1-butanesulphonate hydrochloride] stands 9.40. Same read-out and setting: to `CC(C)[C@H](N)C(=O)OC[C@@H]1Cc2cccc(Oc3cccc(OS(=O)(=O)CCCC(F)(F)F)c3)c2C1` [Example 8, (R)-3-[2-((S)-Valinyloxymethyl)-indanyl-4-oxy]-phenyl 4,4,4-trifluoro-1-butanesulphonate hydrochloride] belongs 9.70.
